“And” between values parts separate entries of the source, which are not always exact repeats. Identical values can stand only once. Like-named read-outs stand apart in the source and are kept apart here.
Assays:
Assay in all cases: biochemical
[1] = target: LiTryS (Leishmania infantum trypanothione synthetase) (Leishmania infantum, UniProt A4I2Z3); format: biochemical; conditions: for activity at 30 µM: read-out: LiTryS Activity ± 2σn-1 (%)
[2] = target: TbTryS (Trypanosoma brucei trypanothione synthetase) (Trypanosoma brucei brucei, UniProt Q8IEX1); conditions: for activity at 30 µM: read-out: TbTryS Activity ± 2σn-1 (%)
[3] = target: TcTryS (Trypanosoma cruzi trypanothione synthetase) (Trypanosoma cruzi, UniProt Q9GT49); format: biochemical; conditions: for remaining activity at 30 µM: read-out: TcTryS Activity ± 2σn-1 (%)
Sequence of TcTryS (Trypanosoma cruzi trypanothione synthetase) (Q9GT49 whole entry): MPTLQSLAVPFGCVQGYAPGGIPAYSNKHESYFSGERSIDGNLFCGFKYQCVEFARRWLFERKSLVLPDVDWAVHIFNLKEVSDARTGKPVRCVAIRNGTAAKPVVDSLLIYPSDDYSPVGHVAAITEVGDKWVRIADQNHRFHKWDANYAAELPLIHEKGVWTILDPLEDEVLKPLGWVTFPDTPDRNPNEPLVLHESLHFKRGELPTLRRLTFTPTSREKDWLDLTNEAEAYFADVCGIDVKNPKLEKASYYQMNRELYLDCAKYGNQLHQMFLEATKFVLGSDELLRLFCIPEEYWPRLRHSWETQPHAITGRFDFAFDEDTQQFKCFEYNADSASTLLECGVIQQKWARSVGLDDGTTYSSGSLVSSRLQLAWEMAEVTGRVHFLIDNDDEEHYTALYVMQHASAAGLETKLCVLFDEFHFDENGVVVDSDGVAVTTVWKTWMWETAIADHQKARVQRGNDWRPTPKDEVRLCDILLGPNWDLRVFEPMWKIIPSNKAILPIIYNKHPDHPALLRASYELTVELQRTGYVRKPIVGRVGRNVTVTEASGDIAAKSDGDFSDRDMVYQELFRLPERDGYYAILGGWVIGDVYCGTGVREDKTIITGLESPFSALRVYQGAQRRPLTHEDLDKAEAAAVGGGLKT

Sequence of TbTryS (Trypanosoma brucei trypanothione synthetase) (Q8IEX1 1-627): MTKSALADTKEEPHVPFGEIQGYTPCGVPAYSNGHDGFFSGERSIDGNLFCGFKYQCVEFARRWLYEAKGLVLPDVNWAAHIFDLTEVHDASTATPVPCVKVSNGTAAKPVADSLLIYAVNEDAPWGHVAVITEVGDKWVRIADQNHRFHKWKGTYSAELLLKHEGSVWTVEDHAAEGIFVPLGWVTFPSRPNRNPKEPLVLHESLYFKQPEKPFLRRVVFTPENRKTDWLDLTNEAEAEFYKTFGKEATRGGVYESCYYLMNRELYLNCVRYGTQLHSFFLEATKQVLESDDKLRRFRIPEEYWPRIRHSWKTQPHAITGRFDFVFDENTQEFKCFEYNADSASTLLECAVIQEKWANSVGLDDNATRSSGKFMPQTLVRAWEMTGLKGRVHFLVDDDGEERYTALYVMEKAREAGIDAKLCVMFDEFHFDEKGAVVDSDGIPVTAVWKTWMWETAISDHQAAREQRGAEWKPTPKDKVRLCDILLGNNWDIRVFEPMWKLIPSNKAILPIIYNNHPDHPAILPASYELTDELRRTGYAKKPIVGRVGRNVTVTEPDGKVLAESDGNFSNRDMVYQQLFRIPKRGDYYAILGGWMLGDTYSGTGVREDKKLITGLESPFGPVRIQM
Sequence of LiTryS (Leishmania infantum trypanothione synthetase) (A4I2Z3 1-652): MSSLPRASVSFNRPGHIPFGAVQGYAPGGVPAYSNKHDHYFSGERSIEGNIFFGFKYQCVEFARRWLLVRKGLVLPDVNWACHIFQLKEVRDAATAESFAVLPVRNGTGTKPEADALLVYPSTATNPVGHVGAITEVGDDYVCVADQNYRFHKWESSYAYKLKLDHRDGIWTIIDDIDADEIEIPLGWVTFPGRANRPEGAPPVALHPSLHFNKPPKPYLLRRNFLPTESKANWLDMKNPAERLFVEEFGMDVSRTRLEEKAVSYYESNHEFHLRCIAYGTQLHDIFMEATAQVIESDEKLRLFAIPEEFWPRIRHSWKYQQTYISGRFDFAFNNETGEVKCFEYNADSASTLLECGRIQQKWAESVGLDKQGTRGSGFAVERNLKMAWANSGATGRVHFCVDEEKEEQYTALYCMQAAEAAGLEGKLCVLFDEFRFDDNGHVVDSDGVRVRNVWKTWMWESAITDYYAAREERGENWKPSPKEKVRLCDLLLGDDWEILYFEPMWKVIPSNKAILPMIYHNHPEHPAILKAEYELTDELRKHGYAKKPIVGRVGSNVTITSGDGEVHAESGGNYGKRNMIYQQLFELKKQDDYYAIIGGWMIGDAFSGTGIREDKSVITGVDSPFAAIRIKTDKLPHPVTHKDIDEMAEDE

Structure (SMILES) | LiTryS Activity ± 2σn-1 (%) [1] | TbTryS Activity ± 2σn-1 (%) [2] | TcTryS Activity ± 2σn-1 (%) [3] | further results
COc1ccc(C2C(C(=O)c3ccc(OC)c(OC)c3)=C(O)C(=O)N2c2nc3ccc(OC)cc3s2)cc1 (stereo not drawn) [ADPKN 162] | 79.8 ± 3.4; 4% | 82.0 ± 1.6; 3% | 98.1 ± 4.7; 4% | 
c1ccc(COc2ccc(CNCCCCCCCCNCc3ccc(OCc4ccccc4)cc3)cc2)cc1 [APC1-109] | 72.2 ± 6.2; 4% |  | 66.2 ± 10.9; 2% | 
COc1cc(CNCCCCCCCCNCc2ccc(O)c(OC)c2)ccc1O [APC1-122] | 102.8 ± 8.6; 3% | 91.6 ± 3.6; 3% | 94.5 ± 7.0; 4% | 
COc1ccc2nc(N3C(=O)C(O)=C(C(=O)c4ccc5c(c4)OCCO5)C3c3ccc(OC)c(OC)c3)sc2c1 (stereo not drawn) [ADMRC155] | 89.3 ± 7.4; 3% | 97.5 ± 3.4; 3% | 104.0 ± 6.6; 4% | 
CCNC(=S)Nc1nc2nc(NCCCN3CCOCC3)ncc2cc1-c1cc(OC)cc(OC)c1 [ZVR159] |  |  | 168.6 ± 4.1; 4 (1.10) % | activity at 30 µM [1]: 101 ± 5.8%; activity at 30 µM [2]: 81.3 ± 1.6%; % TryS activity (TcTryS) [3]: 1.2 ± 3.1; 3% and 0.2 ± 4.0; 4% and 1.2 ± 5.1; 4%; remaining activity at 30 µM [3]: 169%
CC(C)c1ccc(CNCCCCCCCCNCc2ccc(C(C)C)cc2)cc1 [EAP1-37] | 77.4 ± 7.9; 9 (1.284) % | 56.8 ± 5.6; 3 (1.43) % | 65.6 ± 5.3; 4 (1.46) % | 
COc1cc(CNCCCCCCCCCCNCc2ccc(OCc3ccccc3)c(OC)c2)ccc1OCc1ccccc1 [APC1-119] | 78.1 ± 9.8; 6 (1.219) % | 55.5 ± 1.8. 3 (1.11) % | 101.5 ± 1.9; 4 (1.18) % | 
COc1ccc(C2C(C(=O)c3ccc4c(c3)OCCO4)=C(O)C(=O)N2c2nc3ccc(Cl)cc3s2)cc1OC (stereo not drawn) [ADMRC157] | 89.1 ± 2.8; 4% | 102.1 ± 0.01; 3% | 109.2 ± 1.5; 4% | 
Cc1ccc2nc(N3C(=O)C(O)=C(C(=O)c4ccc5c(c4)OCCO5)C3c3ccccc3)sc2c1 (stereo not drawn) [ADMRC151] | 83.1 ± 2.3; 3% | 107.7 ± 6.1; 3% | 97.0 ± 5.2; 3% | 
O=C(C1=C(O)C(=O)N(c2nc3ccc(Cl)cc3s2)C1c1ccc(F)cc1)c1ccc2c(c1)OCCO2 (stereo not drawn) [ADMRC150] | 63.0 ± 6.8; 7% | 101.4 ± 8.2; 12% | 81.2 ± 4.1; 4% | % LiTryS inhibition ± 2σn-1 [1]: ~35%
[O-][n+]1onc2cc(I)ccc21 [Compound J27] | 71.0 ± 8.0; 3% | 98.2 ± 5.6; 3% | 90.1 ± 5.9; 3% | 
COc1ccc(C2C(C(=O)c3ccc4c(c3)OCCO4)=C(O)C(=O)N2c2nc3ccc(Cl)cc3s2)cc1 (stereo not drawn) [AD84] |  |  | 98.7 ± 5.1; 4% | activity at 30 µM [1]: 82.1 ± 4%; TbTryS Activity ± 2σn-1 (%) ([2]; 30 µM): 119.0 ± 6.3; 8 (0.95) %; activity at 30 µM [2]: 119%; remaining activity at 30 µM [3]: 98.7 ± 5.1%
COc1cc2no[n+]([O-])c2cc1OC [Compound J32] | 72.7 ± 7.2; 4% | 93.4 ± 4.5; 4% | 98.1 ± 6.4; 4% | 
COc1ccc(CNCCCCCCCCCCCCNCc2ccc(OC)cc2)cc1 [EAP1-11] | 62.0 ± 7.8; 4% | 77.2 ± 4.5; 5 (1.30) % | 82.8 ± 7.6; 3% | 
CN1CCN(CCCN2c3ccccc3Sc3ccc(Cl)cc32)CC1 [prochlorperazine, reference compound] |  |  |  | inhibition of TcTryS [3]: none of the TryS was inhibited; reduction of TcTryS activity [3]: 34%
c1ccc(COc2ccc(CNCCCCCCNCc3ccc(OCc4ccccc4)cc3)cc2)cc1 [APC1-99] |  |  |  | IC50 [2]: ~30 µM; inhibition at 30 µM ([3]; read-out: % TcTryS inhibition ± 2σn-1): 33.4 ± 4.1%; remaining activity at 30 µM [3]: 66.6%
